Measurements as given in patent publication US12344626B2, “Pharmaceutical compounds and therapeutic methods” (RUTGERS, THE STATE UNIVERSITY OF NEW JERSEY, priority 2019, dated 2025).
pEC50: −log10 of the molar value. Entries after “also recorded” stand apart in the source; their conditions may differ.

Assays:
[1] = Solubility of zinc complexes; assay type: physicochemical
human tumor cell lines = assay: Cell growth inhibition assay (Calcein AM); assay type: cell-based; conditions: for pEC50: Calcein AM, incubation for 3 days; for Fold (Zn-1/compound) / Fold (compound/Zn-1): ratio of EC50s
Description: (§1) Cell growth inhibition assay using human tumor cell lines with different p53 status (wildtype, null, p53-R175H or other zinc binding deficient mutants) are employed to determine if a test compound functions as a zinc metallochaperone to restore wildtype p53 functions. Five thousand cells per well are cultured in 96-well plate to reach the 50% confluence on the second day when treated with serial dilutions of the compounds. Growth is measured by Calcein AM assay after incubation for 72 hours.
The cell growth inhibition assay was performed by Calcein AM assay (Trevigen). Five thousand cells per well were cultured in 96-well plate to reach the 50% confluence on the second day when treated with serial dilutions of the compounds. Growth was measured by Calcein AM assay (Trevigen) and Victor Plate reader instrument (PerkinElmer) after incubation for 3 days.

p53R175H cells = assay: Potency against p53R175H cells in vitro, compared with the monomer from Zn-1; assay type: cell-based
Description: as §1

[2] = test system: p53 target genes p21, PUMA and GDF15; assay: Quantitative PCR of p53 target genes (restoration of wild type transcriptional function); assay type: cell-based; conditions: for p21, PUMA and GDF15 levels: quantitative PCR
COX2(h) = molecular target: T1, COX2(h) (Homo sapiens, UniProt P35354); assay: CEREP-44 Safety Screen: COX2; assay type: biochemical; design: dose or concentration left out as unconfirmed
T1 construct: Eurofins (Cerep) SafetyScreen44 panel, contract screen P270
T1 sequence (P35354 18-604): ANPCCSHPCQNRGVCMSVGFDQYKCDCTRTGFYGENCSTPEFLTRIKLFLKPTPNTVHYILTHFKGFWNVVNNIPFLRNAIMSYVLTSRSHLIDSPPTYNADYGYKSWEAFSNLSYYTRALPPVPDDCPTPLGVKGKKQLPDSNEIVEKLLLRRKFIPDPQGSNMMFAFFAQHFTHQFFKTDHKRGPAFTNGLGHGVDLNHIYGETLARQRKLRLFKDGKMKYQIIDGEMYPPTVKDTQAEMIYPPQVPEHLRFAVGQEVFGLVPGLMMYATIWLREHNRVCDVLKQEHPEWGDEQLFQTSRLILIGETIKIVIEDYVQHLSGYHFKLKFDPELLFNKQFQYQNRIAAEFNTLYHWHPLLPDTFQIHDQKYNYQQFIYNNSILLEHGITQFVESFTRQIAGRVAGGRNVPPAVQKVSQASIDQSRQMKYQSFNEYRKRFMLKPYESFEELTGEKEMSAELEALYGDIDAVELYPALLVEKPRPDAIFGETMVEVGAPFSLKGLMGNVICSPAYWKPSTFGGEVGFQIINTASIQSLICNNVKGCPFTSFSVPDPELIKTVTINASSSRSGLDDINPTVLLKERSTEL

mutant p53 [3] = molecular target: T2, mutant p53 (Homo sapiens, UniProt P04637, R175H); assay: Immunofluorescent staining with p53 conformation specific antibodies (PAB240, PAB1620); assay type: cell-based; conditions: PAB 1620 (wild type specific)
T2 construct: endogenous in cells; host or cells: p53-R175H cells (e.g. TOV112D)
Description: An immunofluorescent staining using p53 conformation specific antibodies is used to determine if a test compound could induce the mutant p53 protein refolding to a wildtype conformation. The p53-R175H cells (e.g. TOV112D) cultured in DMEM+10% FBS are treated with a test compound for 6 hours, then fixed and stained with the antibodies PAB1620 (recognizing WT conformation) and PAB240 (recognizing misfolded/unfolded conformation) respectively.

5-HT2B = molecular target: T3, 5-HT2B (Homo sapiens, UniProt P41595); assay: CEREP-44 Safety Screen: 5-HT2B; assay type: binding; design: dose or concentration left out as unconfirmed
T3 construct: Eurofins (Cerep) SafetyScreen44 panel, contract screen P270
T3 sequence (P41595 whole entry): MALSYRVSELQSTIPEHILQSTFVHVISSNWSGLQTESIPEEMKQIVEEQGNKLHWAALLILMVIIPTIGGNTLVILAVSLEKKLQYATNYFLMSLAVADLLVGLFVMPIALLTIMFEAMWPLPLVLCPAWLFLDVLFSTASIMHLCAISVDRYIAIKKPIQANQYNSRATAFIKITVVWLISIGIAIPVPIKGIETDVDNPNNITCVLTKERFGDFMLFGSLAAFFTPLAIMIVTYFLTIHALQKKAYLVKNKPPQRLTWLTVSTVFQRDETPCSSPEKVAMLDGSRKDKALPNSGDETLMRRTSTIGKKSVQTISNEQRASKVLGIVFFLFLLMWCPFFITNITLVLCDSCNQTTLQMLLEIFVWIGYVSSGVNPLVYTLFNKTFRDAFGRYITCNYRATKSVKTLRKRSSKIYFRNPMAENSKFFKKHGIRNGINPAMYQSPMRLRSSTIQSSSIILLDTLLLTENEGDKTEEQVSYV

COX1(h) = molecular target: T4, COX1(h) (Homo sapiens, UniProt P23219); assay: CEREP-44 Safety Screen: COX1; assay type: biochemical; design: dose or concentration left out as unconfirmed
T4 construct: Eurofins (Cerep) SafetyScreen44 panel, contract screen P270
T4 sequence (P23219 24-599): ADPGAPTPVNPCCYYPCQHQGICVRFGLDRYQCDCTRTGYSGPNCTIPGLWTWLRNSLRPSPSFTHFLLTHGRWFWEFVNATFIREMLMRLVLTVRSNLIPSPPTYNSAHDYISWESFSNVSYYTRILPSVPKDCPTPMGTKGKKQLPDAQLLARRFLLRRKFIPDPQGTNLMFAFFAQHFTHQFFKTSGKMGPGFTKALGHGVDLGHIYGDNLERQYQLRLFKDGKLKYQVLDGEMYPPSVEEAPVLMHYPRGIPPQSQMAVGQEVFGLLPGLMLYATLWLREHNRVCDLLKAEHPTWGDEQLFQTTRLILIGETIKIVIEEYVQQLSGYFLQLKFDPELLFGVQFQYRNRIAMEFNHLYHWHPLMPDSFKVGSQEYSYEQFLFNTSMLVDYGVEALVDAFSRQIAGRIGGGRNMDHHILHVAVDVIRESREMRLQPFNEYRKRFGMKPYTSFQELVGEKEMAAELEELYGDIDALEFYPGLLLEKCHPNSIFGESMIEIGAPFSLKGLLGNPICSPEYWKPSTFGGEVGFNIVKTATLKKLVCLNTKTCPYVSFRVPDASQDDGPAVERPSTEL

mutant p53 [4] = molecular target: T2, mutant p53; assay: Cell growth inhibition after mutant p53 knock-down using siRNA; assay type: cell-based; conditions: mutant p53 knocked down using an siRNA

COc1ccnc(/C(C)=N/NC(=S)N(C)C)c1.COc1ccnc(/C(C)=N/NC(=S)N(C)C)c1.[Zn] [Zn-11, Zn[(E)-2-(1-(4-methoxypyridin-2-yl)ethylidene)-N,N-dimethylhydrazine-1-carbothioamide]2]
Solubility DMSO 4 mg/ml [1]: Yes | Solubility DMSO 10 mg/ml [1]: Yes | Solubility EtOH 1 mg/ml [1]: Partial | Solubility H2O:DMSO 1:1 0.5 mg/mL [1]: No at 0.5 | Qualitative relative solubility in 1:1 DMSO:water ([1]; H2O:DMSO 1:1 at 0.5 mg/mL, compared among Zn-8, Zn-11 and Zn-14): qualitatively more soluble; also recorded: *Qualitatively slightly more soluble compared with Zn-8 and Zn-14 | pEC50 (human tumor cell lines): 9.66 | Fold (Zn-1/compound) (human tumor cell lines): 12.2 | Fold (compound/Zn-1) (human tumor cell lines): 0.1 | More potent than the monomer from Zn-1 (p53R175H cells): 209 fold

Zn[(E)-N,N-dimethyl-2-(1-(4-(2-morpholinoethoxy)pyridin-2-yl)ethylidene)hydrazine-1-carbothioamide]2 bis mesylate salt [ZN-9 Mesylate salt]
Solubility 0.9% Saline ([1]; 0.9% Saline): 5000 to 10000 µg/mL

C/C(=N\NC(=S)N1CCC1)c1ccccn1 [ZN-1, reference compound]
Solubility DMSO 4 mg/ml [1]: Yes | Solubility DMSO 10 mg/ml [1]: No | Solubility EtOH 1 mg/ml [1]: No | Solubility EtOH 2 mg/ml [1]: No | Solubility H2O:DMSO 1:1 0.5 mg/mL [1]: No | p21, PUMA and GDF15 levels [2]: markedly induced | pEC50 (human tumor cell lines; Homo sapiens, 72 h): 8.57 | More potent than the monomer from Zn-1 (p53R175H cells): 3 fold

Zn[(E)-2-(1-(4-(2-methoxyethoxy)pyridin-2-yl)ethylidene)-N,N-dimethylhydrazine-1-carbothioamide]2 [ZN-8]
COX2(h) % Inh. (COX2(h)): 50.7 % Inh. | Wild type conformation change of mutant p53 (mutant p53 [3]): induces a wild type conformation change | 5-HT2B % Inh. (5-HT2B): 58.7 % Inh. | COX1(h) % Inh. (COX1(h)): 54.8 % Inh. | Solubility DMSO 4 mg/ml [1]: Yes | Solubility DMSO 10 mg/ml [1]: Yes | Solubility EtOH 1 mg/ml [1]: YES | Solubility EtOH 2 mg/ml [1]: Partial | Solubility H2O:DMSO 1:1 0.5 mg/mL [1]: No | p21, PUMA and GDF15 levels [2]: markedly induced | Increases of p21, PUMA and GDF15 in p53R175H knock-out cells ([2]; same cell line with mutant p53R175H knocked out using CRISPR): not observed | Cell growth inhibition after mutant p53 knock-down (mutant p53 [4]): attenuated by more than a log fold | pEC50 (human tumor cell lines): 9.43 | Fold (Zn-1/compound) (human tumor cell lines): 7.3 | Fold (compound/Zn-1) (human tumor cell lines): 0.1 | More potent than the monomer from Zn-1 (p53R175H cells): 14 fold

C/C(=N\NC(=S)N(C)C)c1ccc(O[C@H]2CCOC2)cn1.C/C(=N\NC(=S)N(C)C)c1ccc(O[C@H]2CCOC2)cn1.[Zn] [Zn-15, Zn[(S,E)-N,N-dimethyl-2-(1-(5-((tetrahydrofuran-3-yl)oxy)pyridin-2-yl)ethylidene)hydrazine-1-carbothioamide]2]
pEC50 (human tumor cell lines): 8.15 | Fold (Zn-1/compound) (human tumor cell lines): 2.6 | Fold (compound/Zn-1) (human tumor cell lines): 0.4

C/C(=N\NC(=S)N1CCC1)c1ccccn1 [ZMC-1, reference compound]
Solubility DMSO (3 mg/ml) ([1]; DMSO 4 mg/ml column, cell annotated (3 mg/ml)): Yes

Zn[(E)-N,N-dimethyl-2-(1-(4-(2-morpholinoethoxy)pyridin-2-yl)ethylidene)hydrazine-1-carbothioamide]2 [ZN-9]
Solubility DMSO 10 mg/ml [1]: Yes | Solubility EtOH 2 mg/ml [1]: Yes | pEC50 (human tumor cell lines): 7.74 | Fold (Zn-1/compound) (human tumor cell lines): 0.1 | Fold (compound/Zn-1) (human tumor cell lines): 6.7
